In PMC2837848 (Biochemistry, 2010):
Like-named read-outs stand apart in the source and are kept apart here.

Columns and labels:
[1] = molecular target: QAPRTase (Salmonella typhimurium quinolinic acid phosphoribosyltransferase) (Salmonella enterica, UniProt P30012); assay: steady-state kinetics; format: biochemical; details: read-out: WT
[2] = molecular target: QAPRTase (Salmonella typhimurium quinolinic acid phosphoribosyltransferase) (Salmonella enterica, UniProt P30012, R153A); assay: biochemical
[3] = molecular target: QAPRTase (Salmonella typhimurium quinolinic acid phosphoribosyltransferase) (Salmonella enterica, UniProt P30012, H189A); assay: biochemical

Row | Structure (SMILES) | Km ([1]; co-substrate PRPP) [µM] | Kd [2] [µM] | Kd [3] [µM] | Km ([1]; co-substrate QA) [µM]
1 | O=C(O)c1cccnc1C(=O)O [QA, quinolinic acid] | 27 ± 6 | – | – | –
2 | O=P(O)(O)OC[C@H]1O[C@H](OP(=O)(O)OP(=O)(O)O)[C@H](O)[C@@H]1O [PRPP, 5-phosphoribosyl 1-pyrophosphate] | – | ~1000 | 480 ± 75 | 57 ± 7
